Assay results taken from patent US6576663B2, “6-Keto prostaglandin F1α and analogs for treating dry eye” (Alcon, Inc., priority 1999, dated 2003).

How the values were obtained:
[1] = test system: human conjuctival epithelium; test: mucin production in human conjuctival epithelium; format: cell-based
[2] = test system: intestinal epithelial cells; details: released by intestinal epithelial cells in response to hypoxia; cited from earlier work

In the case of `CCCCC[C@H](O)/C=C/[C@@H]1[C@@H](CC(=O)CCCCC(=O)O)[C@@H](O)C[C@H]1O` [6-keto PGF1α, 6-keto-PGF1α], the mucin production [1] is listed as “stimulate mucin production” and the chloride secretagogue activity [2] is listed as “potent chloride secretagogue”.
